From publication PMC10539361, “Allosteric modulation of the fish taste receptor type 1 (T1R) family by the extracellular chloride ion” (Scientific Reports, 2023) come the findings set out here.

One test has as its system mfT1R2b E260K/mfT1R3. In kind it is cell-based, medaka fish. Particulars: 10 mM vs high Cl- buffer.
A further test addresses mfT1R2b/mfT1R3 T105E (Oryzias latipes, UniProt Q2MHK2+Q2MHK4, Q2MHK2:T105E). Briefly: cell-based. Particulars: EC50, [Cl-]o=10 mM; unit inferred.
In a further test the test system is mfT1R2b E260A/mfT1R3. In kind it is cell-based, medaka fish. Conditions: 10 mM vs high Cl- buffer.

pEC50: −log10 of the molar value.

Chain of mfT1R2b/mfT1R3 T105E (Q2MHK2 entry or part of it T105E): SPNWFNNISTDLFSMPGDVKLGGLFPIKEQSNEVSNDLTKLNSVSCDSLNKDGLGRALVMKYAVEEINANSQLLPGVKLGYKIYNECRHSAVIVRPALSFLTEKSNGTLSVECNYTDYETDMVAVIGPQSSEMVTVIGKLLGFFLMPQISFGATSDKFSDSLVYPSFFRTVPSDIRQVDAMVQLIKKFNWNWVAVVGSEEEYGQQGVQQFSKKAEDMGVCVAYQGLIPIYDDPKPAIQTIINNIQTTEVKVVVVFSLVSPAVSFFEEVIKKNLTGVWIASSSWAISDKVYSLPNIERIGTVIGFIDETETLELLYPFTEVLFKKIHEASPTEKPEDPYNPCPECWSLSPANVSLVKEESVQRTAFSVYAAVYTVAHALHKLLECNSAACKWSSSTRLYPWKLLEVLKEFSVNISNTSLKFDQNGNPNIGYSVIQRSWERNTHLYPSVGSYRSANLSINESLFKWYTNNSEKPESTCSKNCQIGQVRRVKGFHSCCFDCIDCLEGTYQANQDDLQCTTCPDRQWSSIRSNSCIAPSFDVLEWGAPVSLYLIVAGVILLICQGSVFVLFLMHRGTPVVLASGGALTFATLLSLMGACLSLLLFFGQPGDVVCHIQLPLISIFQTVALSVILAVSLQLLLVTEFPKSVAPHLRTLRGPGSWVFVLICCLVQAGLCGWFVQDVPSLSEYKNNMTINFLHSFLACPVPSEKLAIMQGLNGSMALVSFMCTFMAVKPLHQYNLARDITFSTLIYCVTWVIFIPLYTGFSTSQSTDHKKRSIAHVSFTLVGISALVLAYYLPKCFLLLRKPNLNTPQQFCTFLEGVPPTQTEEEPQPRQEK
Chain of mfT1R2b/mfT1R3 T105E (Q2MHK4 entry or part of it): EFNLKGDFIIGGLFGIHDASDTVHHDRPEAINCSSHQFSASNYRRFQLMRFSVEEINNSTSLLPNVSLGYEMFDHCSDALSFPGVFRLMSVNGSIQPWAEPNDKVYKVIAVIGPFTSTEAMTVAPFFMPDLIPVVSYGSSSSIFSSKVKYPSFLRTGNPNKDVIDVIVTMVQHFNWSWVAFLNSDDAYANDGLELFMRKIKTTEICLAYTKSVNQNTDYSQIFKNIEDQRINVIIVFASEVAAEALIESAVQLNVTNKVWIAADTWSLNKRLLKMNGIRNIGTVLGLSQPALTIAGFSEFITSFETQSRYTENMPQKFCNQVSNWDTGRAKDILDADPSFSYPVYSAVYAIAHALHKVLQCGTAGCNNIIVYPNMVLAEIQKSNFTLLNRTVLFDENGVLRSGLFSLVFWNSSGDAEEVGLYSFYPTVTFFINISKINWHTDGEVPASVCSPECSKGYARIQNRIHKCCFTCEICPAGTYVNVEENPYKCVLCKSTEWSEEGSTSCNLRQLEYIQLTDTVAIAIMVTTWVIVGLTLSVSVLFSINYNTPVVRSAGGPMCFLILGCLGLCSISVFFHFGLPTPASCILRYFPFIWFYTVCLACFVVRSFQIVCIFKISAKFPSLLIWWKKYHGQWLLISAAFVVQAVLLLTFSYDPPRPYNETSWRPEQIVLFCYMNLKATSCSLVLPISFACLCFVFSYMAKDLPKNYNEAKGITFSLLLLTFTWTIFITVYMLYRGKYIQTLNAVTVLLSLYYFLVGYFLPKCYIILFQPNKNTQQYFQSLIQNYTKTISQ
Protocol for mfT1R2b E260A/mfT1R3: (§1) The buffers with lower Cl^− were prepared by progressively replacing NaCl, KCl, CaCl2 and MgCl2 in the buffer with gluconate equivalents[20]. The pH was adjusted to 7.4 with NaOH. Ligands were diluted with the assay buffers at the desired concentrations.
(§2) Measurements of the responses of the cells by cell-based assay based on the intracellular Ca^2+ mobilization were carried out as described previously with some modifications[20],[34],[46],[47]. […] The cells were seeded in 96-well plates (clear-bottomed CellBIND surface plate, Corning, Glendale, AZ, USA) coated with ε-poly-L-lysine (Cosmo Bio, Tokyo, Japan) at approximately 70,000 cells per well. After 20 h, the medium was removed and replaced with high Cl^− buffer. […] Fluorescence changes (i.e., excitation at 485 nm and emission at 525 nm with a cutoff at 515 nm) were monitored at 2 s intervals. […] The response of each well was determined as ∆RFU (delta relative fluorescent units), which was calculated as (maximum fluorescent value)—(minimum fluorescent value). […] Dose‒response fitting curves were calculated by Prism 9 (GraphPad Software, San Diego, CA) using nonlinear regression (log(agonist) vs. response—variable slope), based on the integrated data from the several independent experiments.
Protocol for mfT1R2b E260K/mfT1R3: as §1, §2
Protocol for mfT1R2b/mfT1R3 T105E: as §1
Measurements of the responses of the cells by cell-based assay based on the intracellular Ca^2+ mobilization were carried out as described previously with some modifications[20],[34],[46],[47]. Cell lines stably expressing T1R2, T1R3 and chimeric G-protein α-subunit, G16gust44[48], were constructed using the Flp-In pcDNA5/FRT complete system (Thermo Fisher Scientific, Waltham, MA, USA) described in our previous studies[34],[46]. […] Fluorescence changes (i.e., excitation at 485 nm and emission at 525 nm with a cutoff at 515 nm) were monitored at 2 s intervals. […] The response of each well was determined as ∆RFU (delta relative fluorescent units), which was calculated as (maximum fluorescent value)—(minimum fluorescent value). […] Dose‒response fitting curves were calculated by Prism 9 (GraphPad Software, San Diego, CA) using nonlinear regression (log(agonist) vs. response—variable slope), based on the integrated data from the several independent experiments.

Take `C[C@H](N)C(=O)O` [L-Ala, L-alanine]: the “effect of [Cl-]o on sensitivity” value with mfT1R2b E260K/mfT1R3 and with mfT1R2b E260A/mfT1R3 was “hardly affected” each time. Further, the pEC50 on mfT1R2b/mfT1R3 T105E was 1.94.
